In patent US11866518B2, “Bicyclic peptide ligands specific for TSLP” (BicycleTx Limited, priority 2020, dated 2024):
pKd: −log10 of the molar value. Where two headings read alike, the source gives them in different places. *1 amine or outer side, *2 acyl side, *3 side chain or, on linkers, in order; H or OH if unused. Where a SMILES comes first, the peptide text is derived from it. Bridges are numbered along the chain shown (N, C = ends). TATA = O=C(CC[*:1])N1CN(C(=O)CC[*:2])CN(C(=O)CC[*:3])C1

Columns and labels:
TSLP [1] = molecular target: T1, TSLP (Homo sapiens, UniProt Q969D9); assay: Human peripheral blood mononuclear cell assay (TSLP-induced CCL17/TARC); format: cell-based; parameters: host or cells: added to human PBMCs from healthy donors
Protocol: Human peripheral blood mononuclear cells (PMBCs) were obtained from heparinized whole blood (healthy donors) by density gradient centrifugation using Lymphoprep (StemCell Technologies, Vancouver, BC) according to the manufacturers instructions. The PBMCs were washed twice with PBS containing 2 mM EDTA and 2% fetal calf serum (FCS) and reconstituted in RPMI containing 10% FCS and 2% PenStrep at a final concentration of 3 million cells/mL. This cell suspension (100 μL) was aliquoted into the wells of a 96-well flat bottom tissue culture plate. 5 μL of bicycle peptide or vehicle (0.1% DMSO in complete medium) was then added and mixed with 5 μL of TSLPvehicle (complete medium). […] The plate was incubated for 30 minutes are rt. 10 μL of this mixture was added to cells and the plate was incubated for 24 hours in a 10% CO2, humidified incubator at 37° C. The plate was centrifuged at 300×g for 5 min and the collected supernatants frozen at −20° C. for subsequent CCL17/TARC analysis.
CCL17/TARC was determined by MSD (MesoScale Discovery, Maryland, USA) according to the manufacturer's instructions.

TSLP [2] = molecular target: T1, TSLP; assay: Human TSLP Surface Plasmon Resonance (SPR) binding assay; parameters: The resulting construct spCD33-6×HN-TEV-hTSLP(29-159)-Avi; 6xHN tag with TEV site (N, cleaved yes); made in house; host or cells: Expi293F cells; conditions: biotinylated human TSLP immobilized on streptavidin chip; 20° C.; steady-state or kinetic 1:1 fit; read-out: hTSLP SPR Kd
[3] = read-out: CCL17 % Inhibition @ 10 μM, […] TSLP
[4] = human PBMCs, 10 μM peptide, 50 pM TSLP, 24 hours, read-out: CCL17 % Inhibition @ 10 μM, 50 pM TSLP

T1 sequence (Q969D9 29-159): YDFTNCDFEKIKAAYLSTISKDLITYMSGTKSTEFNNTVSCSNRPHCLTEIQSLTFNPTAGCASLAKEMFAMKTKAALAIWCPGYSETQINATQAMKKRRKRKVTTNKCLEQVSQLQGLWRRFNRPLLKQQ

Row | SMILES | inhibition at 10 µM (TSLP [1]; [3]) [%] | inhibition at 10 µM (TSLP [1]; [4]) [%] | pKd (TSLP [2])
1 | CC(=O)N[C@H]1CSCCC(=O)N2CN3CN(C2)C(=O)CCSC[C@H](NC(=O)[C@H](CC(=O)O)NC(=O)[C@H](CCC(=O)O)NC(=O)[C@H](CC(C)C)NC(=O)[C@H](Cc2c[nH]c4ccccc24)NC(=O)[C@H](CCC(N)=O)NC1=O)C(=O)N[C@@H](Cc1c[nH]c2ccccc12)C(=O)N[C@@H](CCCNC(=N)N)C(=O)NCC(=O)N[C@@H](Cc1ccc(Cl)cc1)C(=O)N[C@H](C(N)=O)CSCCC3=O [Example 14, Ac-(SEQ ID NO: 12)] | 14 |  | 
2 | CC(=O)N[C@H]1CSCCC(=O)N2CN3CN(C2)C(=O)CCSC[C@H](NC(=O)[C@H](CC(=O)O)NC(=O)[C@H](CCC(=O)O)NC(=O)[C@H](CC(C)C)NC(=O)[C@H](Cc2c[nH]c4ccccc24)NC(=O)[C@H](CCC(N)=O)NC1=O)C(=O)N[C@@H](Cc1c[nH]c2ccccc12)C(=O)N[C@@H](CCCNC(=N)N)C(=O)NCC(=O)N[C@@H](Cc1ccc(F)cc1)C(=O)N[C@H](C(N)=O)CSCCC3=O [Example 17, Ac-(SEQ ID NO: 15)] |  | 1 | 
3 | CC(=O)N[C@H]1CSCCC(=O)N2CN3CN(C2)C(=O)CCSC[C@H](NC(=O)[C@H](CC(=O)O)NC(=O)[C@H](CCC(=O)O)NC(=O)[C@H](CC(C)C)NC(=O)[C@H](Cc2c[nH]c4ccccc24)NC(=O)[C@H](CCC(N)=O)NC1=O)C(=O)N[C@@H](Cc1c[nH]c2ccccc12)C(=O)N[C@@H](CCCNC(=N)N)C(=O)NCC(=O)N[C@@H](Cc1ccc(F)c(F)c1)C(=O)N[C@H](C(N)=O)CSCCC3=O [Example 22, Ac-(SEQ ID NO: 20)] |  | 41 | 
4 | CC(=O)N[C@H]1CSCCC(=O)N2CN3CN(C2)C(=O)CCSC[C@H](NC(=O)[C@H](CC(=O)O)NC(=O)[C@H](CCC(=O)O)NC(=O)[C@H](CC(C)C)NC(=O)[C@H](Cc2c[nH]c4ccccc24)NC(=O)[C@H](CCC(N)=O)NC1=O)C(=O)N[C@@H](Cc1c[nH]c2ccccc12)C(=O)N[C@@H](CCCNC(=N)N)C(=O)NCC(=O)N[C@@H](Cc1cccc(Cl)c1)C(=O)N[C@H](C(N)=O)CSCCC3=O [Example 32, Ac-(SEQ ID NO: 29)] | 14 |  | 
5 | CSCC[C@H](NC(=O)[C@H](CC(=O)O)NC(=O)CNC(=O)[C@H](CC(=O)O)NC(=O)[C@H](C)NC(=O)[C@@H]1CSCCC(=O)N2CN3CN(C2)C(=O)CCSC[C@H](NC(=O)[C@H](CC(=O)O)NC(=O)[C@H](CCC(=O)O)NC(=O)[C@H](CC(C)C)NC(=O)[C@H](Cc2c[nH]c4ccccc24)NC(=O)[C@H](CCC(N)=O)NC(=O)[C@@H](NC(=O)[C@H](C)N)CSCCC3=O)C(=O)N[C@@H](Cc2c[nH]c3ccccc23)C(=O)N[C@@H](CCCNC(=N)N)C(=O)NCC(=O)N[C@@H](Cc2ccccc2)C(=O)N1)C(=O)N[C@@H](CC(C)C)C(N)=O [Example 42, A-(SEQ ID NO: 38)-ADGDML] | 47 | < 20 | 
6 | CC(=O)N[C@H]1CSCCC(=O)N2CN3CN(C2)C(=O)CCSC[C@H](NC(=O)[C@H](CC(=O)O)NC(=O)[C@H](CCC(=O)O)NC(=O)[C@H](CC(C)(C)C)NC(=O)[C@H](Cc2c[nH]c4ccccc24)NC(=O)[C@H](CCC(N)=O)NC1=O)C(=O)N[C@@H](Cc1c[nH]c2ccccc12)C(=O)N[C@@H](CCCNC(=N)N)C(=O)NCC(=O)N[C@@H](Cc1ccccc1)C(=O)N[C@H](C(N)=O)CSCCC3=O [Example 44, Ac-(SEQ ID NO: 39)] | 52 |  | 
7 | CC(C)C[C@@H]1NC(=O)[C@H](Cc2c[nH]c3ccccc23)NC(=O)[C@H](CCC(N)=O)NC(=O)[C@@H](NC(=O)[C@H](CCC(=O)O)NC(=O)[C@H](C)NC(=O)[C@H](CO)NC(=O)[C@H](CC(=O)O)NC(=O)[C@@H](NC(=O)CN)[C@@H](C)O)CSCCC(=O)N2CN3CN(C2)C(=O)CCSC[C@H](NC(=O)[C@H](CC(=O)O)NC(=O)[C@H](CCC(=O)O)NC1=O)C(=O)N[C@@H](Cc1c[nH]c2ccccc12)C(=O)N[C@@H](CCCNC(=N)N)C(=O)NCC(=O)N[C@@H](Cc1ccccc1)C(=O)N[C@H](C(=O)N[C@@H](C)C(N)=O)CSCCC3=O [Example 45, GTDSAE-(SEQ ID NO: 38)-A] | 0 |  | 
8 | CC(=O)N[C@H]1CSCCC(=O)N2CN3CN(C2)C(=O)CCSC[C@H](NC(=O)[C@H](CC(=O)O)NC(=O)[C@H](CCC(=O)O)NC(=O)[C@H](CC(C)C)NC(=O)[C@H](Cc2c[nH]c4ccccc24)NC(=O)[C@H](CCC(N)=O)NC1=O)C(=O)N[C@@H](Cc1c[nH]c2ccccc12)C(=O)N[C@@H](CCCNC(=N)N)C(=O)NCC(=O)N[C@@H](Cc1cccc2ccccc12)C(=O)N[C@H](C(N)=O)CSCCC3=O [Example 47, Ac-(SEQ ID NO: 41)] | -7 |  | 
9 | CC(=O)N[C@H]1CSCCC(=O)N2CN3CN(C2)C(=O)CCSC[C@H](NC(=O)[C@H](CC(=O)O)NC(=O)[C@H](CCC(=O)O)NC(=O)[C@H](CC(C)C)NC(=O)[C@H](Cc2c[nH]c4ccccc24)NC(=O)[C@H](CCC(N)=O)NC1=O)C(=O)N[C@@H](Cc1c[nH]c2ccccc12)C(=O)N[C@@H](CCCNC(=N)N)C(=O)NCC(=O)N[C@@H](Cc1ccc2ccccc2c1)C(=O)N[C@H](C(N)=O)CSCCC3=O [Example 50, Ac-(SEQ ID NO: 42)] | 33 |  | 
10 | CC(C)C[C@@H]1NC(=O)[C@@H]2CSCCC(=O)N3CN(CN(C3)C(=O)CCSC[C@@H](C(=O)N[C@@H](C)C(N)=O)NC(=O)[C@H](CCC(=O)O)NC(=O)[C@@H]3CCCN3C(=O)[C@H](CCC(N)=O)NC(=O)[C@H](Cc3ccc(O)cc3)NC(=O)[C@H](CC(C)C)NC1=O)C(=O)CCSC[C@H](NC(=O)[C@H](C)N)C(=O)N[C@@H](CCC(N)=O)C(=O)N[C@@H](CCC(=O)O)C(=O)N[C@@H](Cc1c[nH]cn1)C(=O)N[C@@H](CC(=O)O)C(=O)N[C@@H](Cc1c[nH]c3ccccc13)C(=O)N[C@@H](Cc1ccc(O)cc1)C(=O)N2 [Example 231, A-(SEQ ID NO: 158)-A] (H-ACQEHDWYCLLYQPECA-NH2; linker 2-9-16 via TATA; N-terminus and C-terminus assumed) |  |  | 5.74
11 | CC[C@H](C)[C@@H]1NC(=O)[C@H](Cc2c[nH]c3ccccc23)NC(=O)[C@@H]2CSCCC(=O)N3CN(CN(C3)C(=O)CCSC[C@@H](C(=O)N[C@@H](C)C(N)=O)NC(=O)[C@H](CC(C)C)NC(=O)[C@H]([C@@H](C)O)NC(=O)[C@H](CCCCN)NC(=O)[C@H](Cc3ccccc3)NC1=O)C(=O)CCSC[C@H](NC(=O)[C@H](C)N)C(=O)N[C@@H](CC(=O)O)C(=O)N[C@@H](CCC(=O)O)C(=O)N[C@@H](CC(C)C)C(=O)N[C@@H](CC(=O)O)C(=O)N[C@@H]([C@@H](C)CC)C(=O)N1CCC[C@H]1C(=O)N2 [Example 232, A-(SEQ ID NO: 159)-A] (H-ACDELDIPCWIFKTLCA-NH2; linker 2-9-16 via TATA; N-terminus and C-terminus assumed) |  |  | 5.08
12 | CC(=O)N[C@H]1CSCCC(=O)N2CN3CN(C2)C(=O)CCSC[C@@H]2NC(=O)[C@H](CC(=O)O)NC(=O)[C@H](CCC(=O)O)NC(=O)[C@H](CC(C)C)NC(=O)[C@H](CCn4cc(nn4)CC[C@H](NC(=O)[C@H](Cc4c[nH]c5ccccc45)NC2=O)C(=O)NCC(=O)N[C@@H](Cc2ccc(F)cc2)C(=O)N[C@H](C(N)=O)CSCCC3=O)NC(=O)[C@H](CCC(N)=O)NC1=O [Example 249] |  |  | 5.92
